The values that follow come from paper PMC9595134, “Novel pituitary actions of GnRH in teleost: The link between reproduction and feeding regulation” (Frontiers in Endocrinology, 2022).

The structures appear in SMILES notation. Where a SMILES comes first, the peptide text is derived from it. [ ]: non-standard residue; d: D form. pGlu = O=C1CC[C@@H](C(=O)O)N1

Assay [1] deals with grass carp pituitary cells. In words: qRT-PCR of reproductive hormone genes in pituitary cells. The format is cell-based, grass carp (Ctenopharyngodon idellus). As to the method: (§1) The preparation of grass carp pituitary cells was performed as mentioned above. After drug treatment, the total RNA of these cells was isolated by TRIzol reagent and reverse transcribed into cDNA with Hifair™ III 1st Strand cDNA Synthesis Kit. The transcript levels of several anorectic peptides (POMCb, CART2, UTS1, NMBa, NMBb, and Lepr) and reproductive genes (GtHα, LHβ, FSHβ, INHBa, SgII, DRD2) were detected by using an ABI 7500 quantitative real-time PCR (qRT-PCR) system (Biosystems, USA) (information of primers for target genes is listed in Supplementary Table S3 ). In this process, a serial gradient dilution of plasmid DNA of these genes was used as a standard for data calibration. The conditions of qRT-PCR were set to 10 min, 95°C, for pre-degeneration; 15 s, 95°C, for degeneration; 30 s, 55°C–60°C, for annealing; 30 s, 72°C, for extending; and 20 s, 82°C, for signal detection with 40 cycles. Finally, the melt curve obtained through each test was used to verify and check the reliability and specificity of the corresponding qRT-PCR.
(§2) The transcript level was detected using qRT-PCR by ABI 7500 software, while the data calibration of each reaction was performed through standard curves with the dynamic range of 10^5 and correlation coefficient >0.95. The transcript level of β-actin was used as an internal control, and target gene mRNA expression was normalized and calculated as a percentage of the mean value (as “% Ctrl”). Based on merging four to eight replicates (as mean ± SEM), the data were analyzed with a one-way ANOVA to differentiate the significant differences from other treatment experiments. The SPSS Statistics 26.0 software was used to do a Dunnett’s post-hoc test. […] The different letters represent a significant difference at p < 0.05 between groups.
To further verify the reproductive function of GnRHs, time- and dose-dependent tests were performed to detect GnRH2- or GnRH3-regulated GtHα, LHβ, FSHβ, INHBa, SgII, and DRD2 mRNA expression in grass carp pituitary cells. […] In the dose-dependent test, a continuous gradient dilution of GnRH2 (0.1–1,000 nM) or GnRH3 (0.1–1,000 nM) was incubated with grass carp pituitary cells for 24 h.
Figure 5 Regulation of reproductive hormone gene mRNA expression by GnRH2 and GnRH3 in grass carp pituitary cells. (A) Time-course experiment of grass carp GnRH2 (1 μM) and GnRH3 (1 μM) on GtHα, LHβ, FSHβ, INHBa, SgII, and DRD2 mRNA expression in grass carp pituitary cells. (B) Dose dependence of a 24-h treatment with increasing levels of GnRH2 and GnRH3 (0.1–1,000 nM) on GtHα, LHβ, FSHβ, INHBa, SgII, and DRD2 mRNA expression in grass carp pituitary cells. After drug treatment, the pituitary cells were extracted to total RNA, reversed transcribed, and used for RT-PCR to detect the target genes’ mRNA expression. […] The different letters represent a significant difference at p < 0.05 between groups (ANOVA followed by a Dunnett test).
Background: Quantitative PCR measures a nucleic acid by following its amplification.

For assay [2], the system named is grass carp pituitary cells. In words: qRT-PCR of anorectic genes in pituitary cells. The format is cell-based, grass carp (Ctenopharyngodon idellus). As for the experimental part:
as §1, §2
To further verify the functional role of GnRH2 and GnRH3 on feeding regulation, time- and dose-dependent tests were performed to detect the effect of GnRH2 and GnRH3 on anorectic gene (POMCb, CART2, UTS1, NMBa, NMBb, and LEPR) mRNA expression. In the time-course test, the grass carp pituitary cells were incubated by GnRH2 or GnRH3 (1 μM) for 3, 6, 12, and 24 h, respectively. […] In the dose-dependent test, grass carp pituitary cells were incubated by the continuous gradient dilution of GnRH2 or GnRH3 (0.1–1,000 nM) for 24 h.
Figure 9 Regulation of feeding hormone gene mRNA expression by GnRH2 and GnRH3 in grass carp pituitary cells. (A) Time-course experiment of grass carp GnRH2 (1 μM) and GnRH3 (1 μM) on POMCb, CART2, UTS1, NMBa, NMBb, and LEPR mRNA expression in grass carp pituitary cells. (B) Dose dependence of a 24-h treatment with increasing levels of GnRH2 and GnRH3 (0.1–1,000 nM) on POMCb, CART2, UTS1, NMBa, NMBb, and LEPR mRNA expression in grass carp pituitary cells. […]

Assay [3] relates to goldfish. Also on record: method as in PMID 7507838, PMID 8045371. The note with it: sexually regressed animals, ref [34], [35]; cited from earlier work.
Where [4] appears, read: 1 μM, time-dependent, Figure 5A.

Take `CC(C)C[C@H](NC(=O)[C@H](Cc1c[nH]c2ccccc12)NC(=O)CNC(=O)[C@H](Cc1ccc(O)cc1)NC(=O)[C@H](CO)NC(=O)[C@H](Cc1c[nH]c2ccccc12)NC(=O)[C@H](Cc1c[nH]cn1)NC(=O)[C@@H]1CCC(=O)N1)C(=O)N1CCC[C@H]1C(=O)NCC(N)=O` [GnRH3] ([pGlu]HWSYGWLPG-NH2): in assay [1] (setting [4]), the “effect on DRD2 mRNA expression, time course” value is “inhibit”; the “effect on GtHα, LHβ, FSHβ, INHBa, and SgII mRNA expression, time course” value was “significantly induce”. In addition, the “effect on DRD2 mRNA expression, dose test” value in assay [1] (0.1–1,000 nM (all treated doses), 24 h, Figure 5B) is “significantly inhibit”. Also, the “effect on GtHα, LHβ, FSHβ, INHBa, and SgII mRNA expression, dose dependence” value in assay [1] (0.1–1,000 nM, 24 h, dose-dependent, Figure 5B) is recorded as “significantly induce”. Besides, the “effect on POMCb, CART2, UTS1, NMBa, NMBb, and LEPR mRNA expression, time course” value in assay [2] (1 μM, 3, 6, 12, and 24 h, time-dependent, Figure 9A) is “significantly induce”. Moreover, the “effect on POMCb, CART2, UTS1, NMBa, NMBb, and LEPR mRNA expression, dose dependence” value in assay [2] (0.1–1,000 nM, 24 h, dose-dependent, Figure 9B) is “significantly induce”. Also, in assay [3], the LH-releasing activity result is given as “potent LH-releasing activity”.
